Laboratory results as given in paper PMC9950431, “A bivalent remipede toxin promotes calcium release via ryanodine receptor activation” (Nature Communications, 2023).

Columns and labels:
[1] = tested on: α3β2/α3β4 nAChR (α3-containing nAChR); assay: FLIPR Ca2+ assay, inhibition of endogenous α3-containing nAChR; format: cell-based, human; settings: for Ca2+ response relative to control response: 3 µM Xt3a pre-treatment, nicotine 30 μM, over 300 s
Procedure: (§1) SH-SY5Y human neuroblastoma cells (European Collection of Authenticated Cell Culture, Sigma Aldrich, 94030304-1VL) were cultured in RPMI media (ThermoFisher Scientific, Scoresby, Australia) supplemented with 15% foetal bovine serum and L-glutamine (1 mM) and passaged at approximately 80% confluency with TrypLE Express (Thermo Fisher, Australia). For fluorescence imaging, cells were plated on CellBIND (Corning) 384-well black-walled imaging plates at a density of 20,000–30,000 cells/well in complete media and cultured for 48 h at 37 °C/5% CO2.
(§2) Briefly, SH-SY5Y cells were loaded with Calcium 4 no-wash dye (Molecular Devices) diluted in physiological salt solution (composition in mM: NaCl 140, D-glucose 11.5, KCl 5.9, MgCl2 1.4, NaH2PO4 1.2, NaHCO3 5, CaCl2 1.8, HEPES 10) for 30 min at 37 °C. A two-addition FLIPR^Tetra (Molecular Devices) protocol using the following settings was used to measure fluorescence responses: excitation 470–495 nm; emission 515–575 nm; excitation intensity 80%; excitation duration 0.8 s; gain 140; read interval 1/s; read number 300/addition. Responses mediated via endogenously expressed ion channels were elicited by addition of: choline (30 μM)/PNU-120596 (10 μM) for α7 nAChR-mediated responses; nicotine (30 μM) for α3β2/α3β4 nAChR-mediated responses; KCl (90 mM)/CaCl2 (5 mM) for CaV1.3-mediated responses; KCl (90 mM)/CaCl2 (5 mM) + nifedipine (10 μM) for CaV2.2-mediated responses; vertridine (70 μM) for NaV1.2-mediated responses; and veratridine (4 μM)/OD1 (300 nM) for NaV1.7-mediated responses. Raw fluorescence readings were converted to response over baseline using the analysis tool Screenworks 3.1.1.4 (Molecular Devices) and were expressed relative to the maximum increase in fluorescence of control responses and plotted using GraphPad Prism 9.3.1.
(§3) In the cell-based FLIPR assays statistical analysis was performed using GraphPad Prism 9.3.1. Statistical significance was defined as p < 0.05, and determined by one-sample t-test assessing difference to the control value of 100%. In α7 nAChR, α3-containing nAChR, CaV1.3, CaV2.2, NaV1.2 and NaV1.7 channels (Supplementary Fig. 5B), with distribution (t) and degrees of freedom (df) being: t = 0.9683, df = 2 (α7); t = 1.338, df = 2 (α3); t = 1.775, df = 2 (NaV1.2); t = 1.478

NaV1.2 = assay: FLIPR Ca2+ assay, inhibition of endogenous NaV1.2; format: cell-based, human; settings: for Ca2+ response relative to control response: 3 µM Xt3a pre-treatment, veratridine 70 μM, over 300 s
Procedure: as §1, §2, §3

ryanodine receptor = target: T1, ryanodine receptor (Oryctolagus cuniculus, UniProt P11716); assay: Single channel recording with Xt3a exposure, sheet "Figure 3B" (RyR isoform not given); format: biochemical
T1 construct: skeletal SR vesicles were isolated from the back and leg muscles of mature female New Zealand white rabbits; from tissue; host or cells: rabbit back and leg skeletal muscle, sarcoplasmic reticulum vesicles
T1 sequence (P11716 whole entry, canonical isoform): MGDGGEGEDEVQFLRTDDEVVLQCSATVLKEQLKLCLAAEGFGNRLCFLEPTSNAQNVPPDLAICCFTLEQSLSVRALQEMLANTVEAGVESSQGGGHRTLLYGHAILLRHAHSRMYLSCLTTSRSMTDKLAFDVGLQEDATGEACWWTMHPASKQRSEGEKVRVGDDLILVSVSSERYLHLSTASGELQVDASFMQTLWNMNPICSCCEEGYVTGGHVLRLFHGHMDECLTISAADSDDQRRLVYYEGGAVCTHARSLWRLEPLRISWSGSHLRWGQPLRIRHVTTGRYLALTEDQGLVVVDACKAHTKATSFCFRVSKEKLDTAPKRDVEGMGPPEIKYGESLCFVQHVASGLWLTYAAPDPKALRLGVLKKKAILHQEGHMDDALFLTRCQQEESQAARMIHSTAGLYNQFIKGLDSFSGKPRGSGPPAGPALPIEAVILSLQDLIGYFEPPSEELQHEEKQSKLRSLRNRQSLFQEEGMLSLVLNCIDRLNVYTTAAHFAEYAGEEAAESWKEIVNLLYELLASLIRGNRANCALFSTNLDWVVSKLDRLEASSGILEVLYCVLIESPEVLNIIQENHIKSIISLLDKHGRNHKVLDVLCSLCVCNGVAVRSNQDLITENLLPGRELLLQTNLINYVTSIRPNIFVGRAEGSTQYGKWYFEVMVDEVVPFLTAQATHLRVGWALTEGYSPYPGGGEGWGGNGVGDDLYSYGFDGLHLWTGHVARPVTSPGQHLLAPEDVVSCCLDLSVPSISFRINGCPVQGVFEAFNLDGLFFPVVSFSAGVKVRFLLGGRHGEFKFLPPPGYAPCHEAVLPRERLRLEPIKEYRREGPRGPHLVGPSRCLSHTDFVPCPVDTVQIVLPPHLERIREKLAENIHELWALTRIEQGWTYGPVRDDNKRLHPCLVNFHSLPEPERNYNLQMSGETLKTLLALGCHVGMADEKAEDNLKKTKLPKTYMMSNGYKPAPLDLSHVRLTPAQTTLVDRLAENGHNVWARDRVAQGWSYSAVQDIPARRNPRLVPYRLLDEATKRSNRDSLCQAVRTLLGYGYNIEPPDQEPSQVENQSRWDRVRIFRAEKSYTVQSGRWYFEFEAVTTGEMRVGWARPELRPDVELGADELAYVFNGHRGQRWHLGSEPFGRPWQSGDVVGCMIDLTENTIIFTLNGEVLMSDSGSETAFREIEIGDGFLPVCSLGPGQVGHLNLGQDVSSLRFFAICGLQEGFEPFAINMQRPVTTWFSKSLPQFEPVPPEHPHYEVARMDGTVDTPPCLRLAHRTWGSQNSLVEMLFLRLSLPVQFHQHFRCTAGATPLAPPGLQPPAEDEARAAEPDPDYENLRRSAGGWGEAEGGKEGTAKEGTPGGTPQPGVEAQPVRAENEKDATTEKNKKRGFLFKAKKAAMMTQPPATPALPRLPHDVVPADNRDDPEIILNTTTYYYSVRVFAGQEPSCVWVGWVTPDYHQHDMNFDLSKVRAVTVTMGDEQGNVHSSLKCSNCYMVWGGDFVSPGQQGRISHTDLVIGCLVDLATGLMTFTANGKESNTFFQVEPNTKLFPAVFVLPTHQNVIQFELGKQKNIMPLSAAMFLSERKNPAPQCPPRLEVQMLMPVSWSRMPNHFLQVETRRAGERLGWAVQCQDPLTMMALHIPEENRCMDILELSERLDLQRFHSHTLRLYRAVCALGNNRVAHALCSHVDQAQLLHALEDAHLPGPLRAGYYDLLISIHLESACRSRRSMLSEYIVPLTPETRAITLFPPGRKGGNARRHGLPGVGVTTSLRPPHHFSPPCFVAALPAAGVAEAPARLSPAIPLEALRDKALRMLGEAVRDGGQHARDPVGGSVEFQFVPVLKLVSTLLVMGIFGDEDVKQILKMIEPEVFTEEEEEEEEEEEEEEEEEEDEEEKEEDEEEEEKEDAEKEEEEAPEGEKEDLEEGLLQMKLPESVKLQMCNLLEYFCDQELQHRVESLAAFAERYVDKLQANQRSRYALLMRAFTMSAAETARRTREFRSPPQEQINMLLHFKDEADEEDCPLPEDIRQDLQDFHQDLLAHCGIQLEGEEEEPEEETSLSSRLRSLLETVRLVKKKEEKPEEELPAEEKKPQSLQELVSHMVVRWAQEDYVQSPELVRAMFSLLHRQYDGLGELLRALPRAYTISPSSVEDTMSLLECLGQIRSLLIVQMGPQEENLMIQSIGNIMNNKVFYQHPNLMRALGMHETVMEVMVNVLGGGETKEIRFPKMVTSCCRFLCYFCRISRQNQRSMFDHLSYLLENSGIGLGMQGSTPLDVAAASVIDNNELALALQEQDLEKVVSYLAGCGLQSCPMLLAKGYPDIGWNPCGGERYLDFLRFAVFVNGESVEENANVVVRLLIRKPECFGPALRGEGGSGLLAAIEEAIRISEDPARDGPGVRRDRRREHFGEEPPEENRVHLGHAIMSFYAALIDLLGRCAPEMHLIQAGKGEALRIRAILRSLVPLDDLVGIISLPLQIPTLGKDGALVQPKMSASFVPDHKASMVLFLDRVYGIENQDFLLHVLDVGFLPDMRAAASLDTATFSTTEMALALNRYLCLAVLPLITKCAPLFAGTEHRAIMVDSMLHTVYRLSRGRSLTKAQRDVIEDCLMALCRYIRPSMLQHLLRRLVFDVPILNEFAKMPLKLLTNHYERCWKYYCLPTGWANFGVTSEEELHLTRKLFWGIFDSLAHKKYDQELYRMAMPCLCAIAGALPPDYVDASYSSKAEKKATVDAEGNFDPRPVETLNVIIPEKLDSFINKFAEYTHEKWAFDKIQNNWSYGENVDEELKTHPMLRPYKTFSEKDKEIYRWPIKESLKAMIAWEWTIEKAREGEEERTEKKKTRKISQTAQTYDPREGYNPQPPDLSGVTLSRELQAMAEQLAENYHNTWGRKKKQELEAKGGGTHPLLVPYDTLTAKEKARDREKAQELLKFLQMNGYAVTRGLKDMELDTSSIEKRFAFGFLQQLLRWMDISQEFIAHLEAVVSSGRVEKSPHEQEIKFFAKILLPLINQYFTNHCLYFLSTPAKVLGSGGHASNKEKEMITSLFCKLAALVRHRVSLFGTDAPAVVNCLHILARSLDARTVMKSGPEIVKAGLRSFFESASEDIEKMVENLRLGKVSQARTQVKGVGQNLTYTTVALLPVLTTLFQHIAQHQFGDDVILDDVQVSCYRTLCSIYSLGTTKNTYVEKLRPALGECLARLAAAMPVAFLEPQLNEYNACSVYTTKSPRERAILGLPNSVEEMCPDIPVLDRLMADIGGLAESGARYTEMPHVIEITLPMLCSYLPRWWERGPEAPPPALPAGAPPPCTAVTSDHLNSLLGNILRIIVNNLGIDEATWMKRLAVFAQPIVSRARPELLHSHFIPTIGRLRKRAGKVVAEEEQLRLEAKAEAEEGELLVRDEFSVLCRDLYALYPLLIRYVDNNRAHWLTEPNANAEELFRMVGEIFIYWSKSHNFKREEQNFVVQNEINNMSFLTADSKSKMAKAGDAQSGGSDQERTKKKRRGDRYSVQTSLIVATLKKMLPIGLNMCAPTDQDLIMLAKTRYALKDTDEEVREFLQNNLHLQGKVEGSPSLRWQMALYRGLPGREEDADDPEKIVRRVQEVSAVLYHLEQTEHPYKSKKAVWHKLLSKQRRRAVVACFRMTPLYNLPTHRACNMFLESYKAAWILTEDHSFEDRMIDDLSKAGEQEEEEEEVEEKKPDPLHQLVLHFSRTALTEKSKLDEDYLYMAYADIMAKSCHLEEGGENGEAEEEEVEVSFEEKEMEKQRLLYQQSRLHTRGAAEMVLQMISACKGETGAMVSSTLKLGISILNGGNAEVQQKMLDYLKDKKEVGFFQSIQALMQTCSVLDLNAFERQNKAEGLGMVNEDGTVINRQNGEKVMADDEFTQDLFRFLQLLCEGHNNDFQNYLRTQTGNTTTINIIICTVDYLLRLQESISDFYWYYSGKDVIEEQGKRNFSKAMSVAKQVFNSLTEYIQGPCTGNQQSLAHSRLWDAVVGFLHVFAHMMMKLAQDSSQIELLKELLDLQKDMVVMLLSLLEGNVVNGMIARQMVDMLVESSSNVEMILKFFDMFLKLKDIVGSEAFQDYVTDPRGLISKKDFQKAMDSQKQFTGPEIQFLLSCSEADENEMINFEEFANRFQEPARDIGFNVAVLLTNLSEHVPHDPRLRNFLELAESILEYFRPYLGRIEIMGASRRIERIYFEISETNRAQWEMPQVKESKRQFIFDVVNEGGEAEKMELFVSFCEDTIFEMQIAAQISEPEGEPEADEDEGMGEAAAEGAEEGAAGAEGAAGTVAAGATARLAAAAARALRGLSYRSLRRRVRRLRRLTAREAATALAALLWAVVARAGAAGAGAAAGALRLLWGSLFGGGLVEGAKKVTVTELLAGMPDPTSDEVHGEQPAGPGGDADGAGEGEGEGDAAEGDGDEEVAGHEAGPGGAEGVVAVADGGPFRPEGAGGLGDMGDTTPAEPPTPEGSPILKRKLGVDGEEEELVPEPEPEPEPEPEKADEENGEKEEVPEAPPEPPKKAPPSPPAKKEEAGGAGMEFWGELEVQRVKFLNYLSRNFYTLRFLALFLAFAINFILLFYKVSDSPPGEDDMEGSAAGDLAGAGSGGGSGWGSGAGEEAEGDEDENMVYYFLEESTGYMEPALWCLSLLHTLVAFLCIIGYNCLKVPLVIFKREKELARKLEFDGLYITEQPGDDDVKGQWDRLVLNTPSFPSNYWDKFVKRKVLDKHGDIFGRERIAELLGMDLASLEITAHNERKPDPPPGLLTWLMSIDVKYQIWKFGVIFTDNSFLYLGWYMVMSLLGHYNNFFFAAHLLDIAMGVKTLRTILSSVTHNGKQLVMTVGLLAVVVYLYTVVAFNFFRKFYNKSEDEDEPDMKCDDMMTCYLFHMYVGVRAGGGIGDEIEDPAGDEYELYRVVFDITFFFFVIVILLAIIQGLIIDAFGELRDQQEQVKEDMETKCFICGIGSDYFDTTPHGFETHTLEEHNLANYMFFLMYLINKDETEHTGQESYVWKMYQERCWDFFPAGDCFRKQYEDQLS

Substance: φ-Xibalbin3-Xt3a
- Ca2+ response relative to control response ([1]; replicate 1): 102.763%
- Ca2+ response relative to control response ([1]; replicate 2): 100.13%
- Ca2+ response relative to control response ([1]; replicate 3): 100.441%
- inhibition of Ca2+ responses ([1]; Xt3a 3 µM): did not inhibit Ca^2+ responses
- Ca2+ response relative to control response (NaV1.2; replicate 1): 91.9349%
- Ca2+ response relative to control response (NaV1.2; replicate 2): 100.571%
- Ca2+ response relative to control response (NaV1.2; replicate 3): 88.9832%
- inhibition of Ca2+ responses (NaV1.2; Xt3a 3 µM): did not inhibit Ca^2+ responses
- rel Po (ryanodine receptor; 1nM Xt3a vs 1 micoM Ca, CT1124n): 0.8977
- rel Po (ryanodine receptor; 1nM Xt3a vs 1 micoM Ca, CT1124p): 0.6333
- rel Po (ryanodine receptor; 1nM Xt3a vs 1 micoM Ca, CT1125p (r7)): 0.7826
- rel Po (ryanodine receptor; 1nM Xt3a vs 1 micoM Ca, CT1125p (r12)): 0.3373
- rel Po (ryanodine receptor; 1nM Xt3a vs 1 micoM Ca, CT1126n): 1.286
- rel Po (ryanodine receptor; 1nM Xt3a vs 1 micoM Ca, CT1126p): 0.0123
- rel Po (ryanodine receptor; 1nM Xt3a vs 1 micoM Ca, CT1129p): 0.92
- rel Po (ryanodine receptor; 1nM Xt3a vs 1 micoM Ca, mean of 7 records): 0.6956
- rel Po (ryanodine receptor; 10nM Xt3a vs 1 micoM Ca, CT1124n): 0.4488
- rel Po (ryanodine receptor; 10nM Xt3a vs 1 micoM Ca, CT1124p): 0.3778
- rel Po (ryanodine receptor; 10nM Xt3a vs 1 micoM Ca, CT1125p (r7)): 1.957
- rel Po (ryanodine receptor; 10nM Xt3a vs 1 micoM Ca, CT1125p (r12)): 1.108
- rel Po (ryanodine receptor; 10nM Xt3a vs 1 micoM Ca, CT1126n): 2.128
- rel Po (ryanodine receptor; 10nM Xt3a vs 1 micoM Ca, CT1126p): 0.02049
- rel Po (ryanodine receptor; 10nM Xt3a vs 1 micoM Ca, CT1129p): 0.23
- rel Po (ryanodine receptor; 10nM Xt3a vs 1 micoM Ca, mean of 7 records): 0.8957
- rel Po (ryanodine receptor; 100nM Xt3a vs 1 micoM Ca, CT1134 n): 0.7716
- rel Po (ryanodine receptor; 100nM Xt3a vs 1 micoM Ca, CT1134 p): 1.135
- rel Po (ryanodine receptor; 100nM Xt3a vs 1 micoM Ca, CT1135 n): 0.4052
- rel Po (ryanodine receptor; 100nM Xt3a vs 1 micoM Ca, CT1135 p): 0.4783
- rel Po (ryanodine receptor; 100nM Xt3a vs 1 micoM Ca, CT1136 n): 1.741
- rel Po (ryanodine receptor; 100nM Xt3a vs 1 micoM Ca, CT1136 p): 0.75
- rel Po (ryanodine receptor; 100nM Xt3a vs 1 micoM Ca, CT1137 n): 0.9231
- rel Po (ryanodine receptor; 100nM Xt3a vs 1 micoM Ca, CT1137p): 4
- rel Po (ryanodine receptor; 100nM Xt3a vs 1 micoM Ca, CT1138n): 4.333
- rel Po (ryanodine receptor; 100nM Xt3a vs 1 micoM Ca, CT1138p): 1.4
- rel Po (ryanodine receptor; 100nM Xt3a vs 1 micoM Ca, mean of 10 records): 1.5937
- rel Po (ryanodine receptor; 1 microM Xt3a vs 1 micoM Ca, CT1134 n): 1.472
- rel Po (ryanodine receptor; 1 microM Xt3a vs 1 micoM Ca, CT1134 p): 4.143
- rel Po (ryanodine receptor; 1 microM Xt3a vs 1 micoM Ca, CT1135 n): 32.1638
- rel Po (ryanodine receptor; 1 microM Xt3a vs 1 micoM Ca, CT1136 n): 1
- rel Po (ryanodine receptor; 1 microM Xt3a vs 1 micoM Ca, CT1136 p): 0.625
- rel Po (ryanodine receptor; 1 microM Xt3a vs 1 micoM Ca, CT1137 n): 1.769
- rel Po (ryanodine receptor; 1 microM Xt3a vs 1 micoM Ca, CT1137p): 2
- rel Po (ryanodine receptor; 1 microM Xt3a vs 1 micoM Ca, CT1138n): 1.286
- rel Po (ryanodine receptor; 1 microM Xt3a vs 1 micoM Ca, CT1138p): 0.9
- rel Po (ryanodine receptor; 1 microM Xt3a vs 1 micoM Ca, mean (CT1135 p cell empty)): 5.04
